What all share (type): cell-based
The test system of test [1] is 786-O (CD70 positive) cells. As to the kind of experiment: In vitro cytotoxicity in CD70 positive 786-O cells (CellTiter-Glo 2.0, 4 days). As to conditions: Homo sapiens; for Emax at 0.025 µM: maximal killing at 25 nM. The method, then:
(§1) Small molecule duocarmycin analogs (compounds 4, 13, 15, 17 and 38) and anti-CD70 ADCs (anti-CD70-12, anti-CD70-14, anti-CD70-16 and anti-CD70-18) were evaluated for cytotoxicity. Briefly, 786-0 (CD70 positive) cells were seeded into 96-well clear bottom white plate at 1,000 cells/well and incubated overnight in a 37° C. and 5% CO2 incubator. NCI-H929 (CD70 negative) cells were seeded 30,000 cells/well just before the time of treatment of test articles. The serially diluted small molecule drugs or anti-CD70 ADCs were added to the wells and the plates were incubated for 4 days in a 37° C. and 5% CO2 incubator. At the end of incubation, CellTiter-Glo2.0 Reagent (Promega, Madison, WI) was added to the room temperature equilibrated plates and luminescence was measured in a SpectraMax M5E plate reader. The relative viability was calculated as a percentage of untreated cells. The half-maximal inhibitory concentration (IC50) was determined by a nonlinear 4-parameter dose-response curve fitting using GraphPad Prism (GraphPad Software, San Diego, CA). The maximal killing (Emax) was determined by subtracting the % viability at the indicated dose from 100%.

Test [2] concerns NCI-H929 (CD70 negative) cells. As to the kind of experiment: In vitro cytotoxicity in CD70 negative NCI-H929 cells (CellTiter-Glo 2.0, 4 days). The settings on record: Homo sapiens, 96 h; for Emax at 0.025 µM: maximal killing at 25 nM. The method, then:
as §1

Test [3] has as its system HepG2 (GPC3 positive) cells. As to the kind of experiment: In vitro cytotoxicity in GPC3 positive HepG2 cells (CellTiter-Glo 2.0, 3 days). As to conditions: Homo sapiens, 72 h; for Emax at 0.03 µM: maximal killing at 30 nM. The method, then:
(§2) Anti-GPC3 ADCs were prepared via conjugation of GPC3 clone 1 mAb containing non-natural amino acid pAF with each of compounds 12, 14, 16 and 18. The corresponding ADCs (hereinafter, anti-GPC3-12, anti-GPC3-14, anti-GPC3-16 and anti-GPC3-18 respectively) and small molecule duocarmycin analogs (compounds 15 and 17) were evaluated for cytotoxicity. Briefly, HepG2 and SNU449 cells were seeded into 96-well white opaque plate at 3,000 cells/well and incubated overnight in a 37° C. and 5% CO2 incubator. The serially diluted small molecule drugs or anti-GPC3 ADCs were added to the wells and the plates were incubated for 3 days in a 37° C. and 5% CO2 incubator. At the end of incubation, CellTiter-Glo2.0 Reagent (Promega, Madison, WI) was added to the room temperature equilibrated plates and luminescence was measured in a SpectraMax M5E plate reader. The relative viability was calculated as a percentage of untreated cells. The half-maximal inhibitory concentration (IC50) was determined by a nonlinear 4-parameter dose-response curve fitting using GraphPad Prism (GraphPad Software, San Diego, CA). The maximal killing (Emax) was determined by subtracting the % viability at the indicated dose from 100%.

Test [4] relates to SNU449 (GPC3 negative) cells. As to the kind of experiment: In vitro cytotoxicity in GPC3 negative SNU449 cells (CellTiter-Glo 2.0, 3 days). The settings on record: Homo sapiens, SNU-449, 72 h; for Emax at 0.03 µM: maximal killing at 30 nM. The method, then: as §2
[5] abbreviates: 786-0, 96 h, 786-O (CD70 Positive), 4 days.

Here are results for six compounds from US20260317329A1, “DRUG LINKERS AND ANTIBODY CONJUGATES THEREOF” (Ambrx, Inc., priority 2022, published 2026).

With `COc1cc2cc(C(=O)N3C[C@@H](CCl)c4c3cc(O)c3[nH]c(C(=O)N5CCc6ccccc65)cc43)[nH]c2c(OC)c1OC` [Compound 4, (S)-(8-(chloromethyl)-4-hydroxy-6-(5,6,7-trimethoxy-1H-indole-2-carbonyl)-3,6,7,8-tetrahydropyrrolo[3,2-e]indol-2-yl)(indolin-1-yl)methanone], in test [1] (setting [5]), the IC50 worked out at 0.0089 nM and the Emax at 0.025 µM came to 99%. In addition, in test [2], half-maximal inhibition (IC50) was put at 0.804 nM and the Emax at 0.025 µM was found to be 99.7%.
`COc1cc2c(cc1OC)N(C(=O)c1cc3c4c(cc(O)c3[nH]1)N(C(=O)c1cc3cc(OC)c(OC)c(OC)c3[nH]1)C[C@H]4CCl)CC2` [Compound 13]: the IC50 in test [1] (setting [5]) is 0.0166 nM; in test [2], 1.79 nM. For the same compound, the results for the Emax at 0.025 µM in test [1] (setting [5]) and in test [2] were 99.2% and 99.5%, respectively.
With `COc1cc2cc(C(=O)N3C[C@@H](CCl)c4c3cc(O)c3[nH]c(C(=O)N5CCc6ccncc65)cc43)[nH]c2c(OC)c1OC` [Compound 15], the IC50 in test [1] (setting [5]) was determined as 0.0626 nM; in test [3] it was 0.41 nM; in test [4], 0.427 nM; in test [2], 9.12 nM. Further, the results for the Emax at 0.025 µM in test [1] (setting [5]) and in test [2] were 98.1% and 82.4%, respectively. For the same compound, the Emax at 0.03 µM in test [3] came out at 96.5%; in test [4], 91.1%.
For `COc1cc2cc(C(=O)N3C[C@@H](CCl)c4c3cc(O)c3[nH]c(C(=O)N5CCc6cc(OCCN7CCOCC7)ccc65)cc43)[nH]c2c(OC)c1OC` [Compound 17], the IC50 amounted to 0.0179 nM in test [1] (setting [5]), 0.217 nM in test [3], 0.245 nM in test [4] and 2.59 nM in test [2]. Besides, the Emax at 0.025 µM in test [1] (setting [5]) was 99.3%; in test [2], 97.6%. Also, the figures for the Emax at 0.03 µM in test [3] and in test [4] were 97.6% and 94.2%, respectively.
As to `COc1cc2cc(C(=O)N3C[C@@H](CCl)c4c3cc(O)c3ccccc43)[nH]c2c(OC)c1OC` [Compound 38, reference compound], the IC50 in test [1] (setting [5]) came to 0.561 nM; in test [2], 0.791 nM. In addition, the Emax at 0.025 µM in test [1] (setting [5]) is 97.4%; in test [2], 99.5%.
In test [1] (786-0 (CD70-positive), first test of benchmark free drug and ADC), `COC(=O)c1cc2c3c(cc(O)c2[nH]1)N(C(=O)c1cc2cc(OC)c(OC)c(OC)c2[nH]1)C[C@H]3CCl` [Compound 39, (S)-seco-duocarmycin SA, reference compound] yielded an IC50 of 0.065 nM.
